Assay results taken from patent publication US8044025B2 (Research Development Foundation, priority 2000, dated 2011).
Entries after “also recorded” stand apart in the source; their conditions may differ. No end group written: not given here.

Tests used:
[1] = Nocturnal food intake after icv peptide; type: in vivo, rat; details: 1 μg icv, rats
Excerpt: (§1) To identify cell groups responsive to central Ucn II administration, and to evaluate the extent to which these may conform to sites of CRF-R2 expression, the induced expression of the immediate-early gene product, Fos, in response; to icv peptide administration was monitored. Adult male Sprague-Dawley rats (250-300 g at start of experiments) and C57 BL/6 mice (25-40 g) were housed in a colony room on a 12:12 light:dark cycle, and with free access to food and water prior to experimentation. For intracerebroventricular (icv) injections, rats were anesthetized with ketamine/xylazine/acepromazine and stereotaxically implanted with a 26 ga guide cannula terminating in the lateral ventricle. For intravenous (iv) administration of peptides, animals were fitted with indwelling jugular venous catheters. […]
To monitor induced patterns of Fos expression, rats were injected at 10 am, either icv or iv with synthetic Ucn II (1, 5 or 10 μg/animal in 2 μl saline for icv injections or 200 μl for iv administration), or vehicle alone, and perfused two hours later. […] Consumption was then measured hourly for 6 hrs and at 12 hrs. Data were analyzed using repeated measures analysis of variance (ANOVA), with the Bonferoni correction for multiple comparisons applied as warranted. […]

[2] = Telemetric gross motor activity after icv peptide; type: in vivo, rat; details: 1 μg icv, rats, telemetry
Excerpt: as §1, with “catheters. Rats that received icv injections were also implanted intra-abdominally with a transmitter to remotely monitor gross activity levels and body temperature (Mini-Mitter). After surgery, animals were allowed to recover for 7 days prior to any experimentation, during which time they were handled daily.” for “catheters.”
In these same subjects, gross motor activity and body temperature were monitored telemetrically (FIG. 10B). […] Core body temperature was also recorded, with each peptide provoking comparably mild (0.5-1° C.) and transient (2 hr) hypothermic responses (data not shown).

CRFR1 [3] = target: T1, CRFR1 (Homo sapiens, UniProt P34998); test: Radioreceptor assay, displacement of 125I-[Tyr0,Glu1,Nle17]-sauvagine, CHO cell membranes (Example 4); details: 3-6 experiments, range from SD of log10 values, read-out: CRF-R1 Avg. Ki (nM) (Binding)
T1 construct: expressed in transfected cells; host or cells: CHO cells, stably transfected
T1 sequence (P34998 24-415): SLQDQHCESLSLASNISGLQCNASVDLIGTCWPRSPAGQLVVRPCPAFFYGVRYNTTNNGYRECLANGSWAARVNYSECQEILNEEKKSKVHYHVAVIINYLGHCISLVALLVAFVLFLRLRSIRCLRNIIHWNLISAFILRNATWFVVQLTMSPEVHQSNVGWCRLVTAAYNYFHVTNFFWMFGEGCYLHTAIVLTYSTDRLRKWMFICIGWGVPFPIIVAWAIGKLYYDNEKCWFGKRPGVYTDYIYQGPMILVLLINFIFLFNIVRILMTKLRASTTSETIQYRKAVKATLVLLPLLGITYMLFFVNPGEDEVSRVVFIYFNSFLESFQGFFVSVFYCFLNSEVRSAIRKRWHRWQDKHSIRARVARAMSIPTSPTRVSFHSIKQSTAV
Experimental: (§2) The affinity of Ucn II to the CRF-R1 and CRF-R2 receptors was evaluated using a radioreceptor assay. Crude membrane fractions were prepared from CHO cells stably expressing either cloned CRF-R1 or CRF-R2β. Test peptides and the radioligand, ^125I-[Tyr^0, Glu^1, Nle^17]-sauvagine, were diluted in assay buffer (20 mM HEPES, 2 mM EGTA, 0.1% BSA, 10% sucrose, pH 7.6) and combined with the receptor membrane preparations in MAGV microtiter plates (Millipore) pre-coated with 0.1% polyethylene imine. The reaction mixture was incubated for 90 min at room temperature followed by rapid washing twice with assay buffer and filtration. The radioligand complex was quantified by gamma radiation counting. Inhibitory binding constants were determined using Prism software.
(§3) The values were determined from 3-6 independent experiments using stably transfected CHO cells or their membranes for each test peptide. EC50 and Ki values were determined using Prism software. Their log10 values were averaged (γ). The average EC50 or Ki was taken to be 10^γ. The standard deviation of the log10 values was calculated (σ). The ranges given were taken to be: [(10^γ)10^σ or 10^γ/10^σ].

CRF-R2β = target: T2, CRF-R2β (Mus musculus, UniProt Q60748); test: as above; details: 3-6 experiments, range from SD of log10 values, read-out: CRF-R2 Avg. Ki (nM) (Binding)
T2 construct: expressed in transfected cells; host or cells: CHO cells, stably transfected
Experimental: as §2, §3

[4] = Food intake after icv hURP; type: in vivo, rat; details: 5 μg icv
Experimental: The effect of human urocortin-related peptide on appetite was also examined in rats. Cannulas for injection of human urocortin-related peptide were surgically into the right lateral ventricle and the animals were allowed to recover for seven days. During the time, the animals were handled daily to acclimatize the animals to the injection procedure. On the day of injection, the animals were injected with either 5 μl of saline or 5 μl of 1 μg/μl human urocortin-related peptide in saline. The amount of food eaten by each animal was recorded every hour for six hours and at fourteen hours.

[5] = Body temperature after icv hURP; type: in vivo, rat; details: 5 μg icv, monitored twelve hours
Excerpt: The effect of human urocortin-related peptide on the body temperature of rats was examined. Cannulas for injection of human urocortin-related peptide were surgically into the right lateral ventricle. Telemeters for the continuous unobtrusive analysis of body temperature were implanted intraabdominally. The animals were allowed a post-surgical recovery period of seven days. During the time, the animals were handled daily to acclimatize the animals to the injection procedure. On the day of injection, baseline temperature was for recorded for three hours. At 6:00 p.m. (the onset of lights out) the animals were injected with either 5 μl of saline or 5 μl of 1 μg/μl human urocortin-related peptide in saline. Body temperature was monitored every five minutes for twelve hours.

CRFR1 [6] = target: T1, CRFR1; test: Displacement of 125I-Sauvagine binding, CHO membranes (Example 5)
Experimental: (§4) FIGS. 5A and 5B show the human urocortin-related peptide mediated displacement of ^125I-Sauvagine binding to CRFR1 and CRFR2β, respectively. The affinities of Ucn and URP peptides for CRFR1 and CRFR2β_stably expressed in CHO cells were determined by the competitive displacement of the ^125I-Sauvagine.
(§5) Membranes were prepared as described above (29). Binding was performed in 96-well 0.2 μm Durapore plates using the vacuum filtration multiscreen assay system (Millipore). […] Plates were incubated for 1 hour at room temperature, vacuum-filtered, washed twice with binding buffer, and allowed to dry. Individual filters were punched out and counted using a gamma counter.

CRFR2β = test: as above; details: CRF-R2β versus CRF-R1
Experimental: as §4, §5

Fos expression = test: hURP-stimulated Fos expression in rat brain; type: in vivo; details: 5 μg icv, rats sacrificed two hours later
Experimental: Activation of central stress-related cells groups by human urocortin-related peptide was examined by detection of the Fos gene product in the cells following injection with human urocortin-related peptide. Rats were implanted with guide cannulae in a lateral cerebral ventricle seven days prior to experimentation. On the day of testing, the rats were injected with 5 μg synthetic human urocortin-related peptide in 5 μl of sterile saline. The rats were sacrificed two hours later and slides of various brain sections were prepared. The slides were stained by immunoperoxidase localization of Fos-immunoreactivity using a polyclonal serum raised in rabbit against residues 3-16 of the human Fos protein.

CRFR1 [7] = target: T1, CRFR1; test: Accumulation of intracellular cAMP in stably transfected CHO cells; type: cell-based; details: peptides 20 min at 37° C.
Experimental: as §3
(§6) This significant selectivity for the type 2 receptor was seen also in receptor activation as measured by accumulation of intracellular cAMP. Stably transfected CHO cells (cultured in DMEM/10% FBS) were plated into 48-well tissue culture dishes (Costar) and allowed to recover for 24 hours. The medium was changed to DMEM/0.1% FBS at least two hours before treatment. The cells were preincubated for 30 min with 0.1 mM 3-isobutyl-1-methylxanthine and then exposed to peptides for 20 min at 37° C. Intracellular cAMP was extracted and measured in duplicate from triplicate wells using a RIA kit (Biomedical Technologies). […] The extremely low affinity of Ucn II for CRF-R1 precluded a determination of its efficacy on this receptor.

CRF-R2 = target: T3, CRF-R2 (Mus musculus, UniProt Q60748); test: as above; type: cell-based; details: peptides 20 min at 37° C.
T3 construct: expressed in transfected cells; host or cells: CHO cells, stably transfected
Experimental: as §3, §6

[8] = Gross motor activity after icv hURP; type: in vivo, rat; details: 5 μg icv, counts over four hours
Excerpt: To determine if human urocortin-related peptide plays a role in the generation of stress response, the effect of human urocortin-related peptide on the gross motor activity of rats was examined. Cannulas were surgically into the right lateral ventricle while telemeters were implanted intraabdominally to allow for continuous monitoring of gross motor activity. The animals were allowed a post-surgical recovery period of seven days. During the time, the animals were handled daily to acclimatize the animals to the injection procedure. On the day of injection, baseline activity was for recorded for four hours. At 6:00 p.m., which was the onset of lights out, the animals received an injection of either 5 μl of saline or 5 μl of saline containing a total of 5 μg of human urocortin-related peptide. Activity counts were summated over a four hour time period.

[9] = test system: rat anterior pituitary cells; test: ACTH secretion from primary rat anterior pituitary cells; type: cell-based; details: primary cultures of rat anterior pituitary cells
Experimental: Secreted ACTH was measured using a kit (Nichols Institute Diagnostics).
For pituitary actions, ACTH secretion response to human urocortin-related peptide was measured in primary cultures of rat anterior pituitary cells as described (30). ACTH levels were determined using the ACTH immunoassay kit from Nichols Institute Diagnostics. The rat anterior pituitary cells were treated with either rat urocortin or human urocortin-related peptide and the level of secreted ACTH was measured, using a kit (Nichols Institute Diagnostics).

T3 sequence (Q60748 27-431 isoform Q60748-2 limits assumed): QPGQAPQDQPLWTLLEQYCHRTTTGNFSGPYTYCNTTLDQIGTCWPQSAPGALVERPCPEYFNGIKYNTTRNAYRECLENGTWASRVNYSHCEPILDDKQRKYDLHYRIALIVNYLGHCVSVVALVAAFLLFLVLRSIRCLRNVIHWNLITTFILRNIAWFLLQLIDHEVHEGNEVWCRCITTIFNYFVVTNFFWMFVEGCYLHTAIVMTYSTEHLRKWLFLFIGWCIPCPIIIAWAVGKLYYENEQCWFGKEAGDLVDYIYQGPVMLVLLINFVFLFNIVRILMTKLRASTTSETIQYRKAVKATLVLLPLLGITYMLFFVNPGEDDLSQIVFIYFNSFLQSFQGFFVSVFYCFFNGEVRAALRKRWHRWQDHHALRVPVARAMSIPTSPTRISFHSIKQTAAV
T2 sequence (Q60748 27-431 isoform Q60748-2 limits assumed): as above

Row | Substance | Degree of suppression of food intake over the 12 hr interval ([1]; nocturnal phase) [%] | Time post-injection at which food intake is significantly less than saline controls [1] [h] | Gross motor activity versus vehicle [2] | Ki (CRFR1 [3]) [nM] | Ki (CRF-R2β) [nM] | Total food consumed versus control ([4]; over fourteen hours) | Food consumed during each time period versus control ([4]; per time period) | Body temperature versus saline controls [5] | Ki (CRFR1 [6]; Example 5, FIG. 5, CHO cells, read-out: Disassociation constant (Ki) for CRF-R1) [nM] | Ki (CRFR1 [6]; synthesized peptide, as stated in the Summary, read-out: Ki for CRF-R1 (summary statement)) [nM] | Specificity for CRF type II receptor relative to urocortin (CRFR2β) | Fos-immunoreactivity in central stress-related cell groups (Fos expression) | EC50 (CRFR1 [7]) [nM] | EC50 (CRF-R2) [nM] | Gross motor activity versus saline controls [8] | Stimulation of ACTH secretion relative to urocortin ([9]; listed as Human urocortin-related peptide) | Stimulation of ACTH secretion relative to urocortin ([9]; listed as human urocortin-related peptide)
1 | CRF: 41-amino acid peptide initiating pituitary-adrenal responses to stress; R1-selective agonist (SEEPPISLDLTFHLLREVLEMARAEQLAQQAHSNRKLMEII; ends and bridges not checked; UniProt P06850 154-194, looked up) | 30 | 4 | significantly more active than vehicle-treated rats; also recorded: significantly elevated |  |  |  |  |  |  |  |  |  |  |  |  |  | 
2 | IVLSLDVPIGLLQILLEQARARAAREQATTNARILARVGHC-NH2 [URP (human)] |  |  |  | > 100 | 0.5 | ate significantly less food than control animals | especially ate less food during the first and third hours after injection as well as during the final eight hours of the experiment | lower body temperatures both immediately and at seven hours after injection | 78 | 70 | much more specific for the corticotropin releasing factor type II receptor than urocortin | Fos-immunoreactivity was detected | > 100 | 0.42 | No significant difference in gross motor activity | significantly lower potency compared to urocortin or CRF | less sensitive to human urocortin-related peptide than to urocortin
